# Assay results from patent US12370168B2 (scPharmaceuticals Inc., priority 2013, dated 2025).
# Like-named read-outs stand apart in the source and are kept apart here.
# How the values were obtained:
# [1] = 8 mg/mL; for Osmolality / [Furosemide] / pH: three months
# [2] = 8 mg/mL
# [3] = Example 3 stability of 20 mg/mL furosemide Tris-buffered solutions, pH 6.7 to 8.5, ambient temperature; settings: Tris buffer pH 6.7 to 8.5, ambient temperature, over 48 hours
# Description: Samples were stored at ambient temperature and subsequently analyzed after 24 and 48 hours of storage.
# [4] = 25 mM Tris, nominal pH 7.0, 70° C.
# [5] = 25 mM Tris, nominal pH 7.4, 70° C.
# [6] = 25 mM Tris, nominal pH 8.0, 70° C.
# [7] = 50 mM Tris, nominal pH 7.0, 70° C.
# [8] = 50 mM Tris, nominal pH 7.4, 70° C.
# [9] = 50 mM Tris, nominal pH 8.0, 70° C.
# [10] = 100 mM Tris, nominal pH 7.0, 70° C.
# [11] = 100 mM Tris, nominal pH 7.4, 70° C.
# [12] = 100 mM Tris, nominal pH 8.0, 70° C.
# [13] = 25, 50, 100 mM Tris, pH 7.0, 7.4, 8.0, 70° C., 3 months
# [14] = 25 mM Tris, nominal pH 7.0, 2-8° C., three months
# [15] = 25 mM Tris, nominal pH 7.0, 25° C., three months
# [16] = 25 mM Tris, nominal pH 7.0, 40° C., three months
# [17] = 25 mM Tris, nominal pH 7.0, −20° C., three months
# [18] = 25 mM Tris, nominal pH 7.4, 2-8° C., three months
# [19] = 25 mM Tris, nominal pH 7.4, 25° C., three months
# [20] = 25 mM Tris, nominal pH 7.4, 40° C., three months
# [21] = 25 mM Tris, nominal pH 7.4, −20° C., three months
# [22] = 25 mM Tris, nominal pH 8.0, 2-8° C., three months
# [23] = 25 mM Tris, nominal pH 8.0, 25° C., three months
# [24] = 25 mM Tris, nominal pH 8.0, 40° C., three months
# [25] = 25 mM Tris, nominal pH 8.0, −20° C., three months
# [26] = 50 mM Tris, nominal pH 7.0, 2-8° C., three months
# [27] = 50 mM Tris, nominal pH 7.0, 25° C., three months
# [28] = 50 mM Tris, nominal pH 7.0, 40° C., three months
# [29] = 50 mM Tris, nominal pH 7.0, −20° C., three months
# [30] = 50 mM Tris, nominal pH 7.4, 2-8° C., three months
# [31] = 50 mM Tris, nominal pH 7.4, 25° C., three months
# [32] = 50 mM Tris, nominal pH 7.4, 40° C., three months
# [33] = 50 mM Tris, nominal pH 7.4, −20° C., three months
# [34] = 50 mM Tris, nominal pH 8.0, 2-8° C., three months
# [35] = 50 mM Tris, nominal pH 8.0, 25° C., three months
# [36] = 50 mM Tris, nominal pH 8.0, 40° C., three months
# [37] = 50 mM Tris, nominal pH 8.0, −20° C., three months
# [38] = 100 mM Tris, nominal pH 7.0, 2-8° C., three months
# [39] = 100 mM Tris, nominal pH 7.0, 25° C., three months
# [40] = 100 mM Tris, nominal pH 7.0, 40° C., three months
# [41] = 100 mM Tris, nominal pH 7.0, t0
# [42] = 100 mM Tris, nominal pH 7.0, −20° C., three months
# [43] = 100 mM Tris, nominal pH 7.4, 2-8° C., three months
# [44] = 100 mM Tris, nominal pH 7.4, 25° C., three months
# [45] = 100 mM Tris, nominal pH 7.4, 40° C., three months
# [46] = 100 mM Tris, nominal pH 7.4, t0
# [47] = 100 mM Tris, nominal pH 7.4, −20° C., three months
# [48] = 100 mM Tris, nominal pH 8.0, 2-8° C., three months
# [49] = 100 mM Tris, nominal pH 8.0, 25° C., three months
# [50] = 100 mM Tris, nominal pH 8.0, 40° C., three months
# [51] = 100 mM Tris, nominal pH 8.0, t0
# [52] = 100 mM Tris, nominal pH 8.0, −20° C., three months
# [53] = 25, 50, 100 mM Tris, pH 7.0, 7.4, 8.0, −20° C. to 40° C., three months
compound,measurement,setting,value
"NS(=O)(=O)c1cc(C(=O)O)c(NCc2ccco2)cc1Cl [Furosemide, 4-chloro-2-(furan-2-ylmethylamino)-5-sulfamoyl-benzoic acid]",Osmolality,[1]; [4],308 mOsm/kg H2O
same,[Furosemide],[1]; [4],<0.002 mg/mL
same,pH,[1]; [4],4.44
same,Osmolality,[1]; [5],299 mOsm/kg H2O
same,[Furosemide],[1]; [5],<0.002 mg/mL
same,pH,[1]; [5],4.57
same,Osmolality,[1]; [6],297 mOsm/kg H2O
same,[Furosemide],[1]; [6],1.16 mg/mL
same,pH,[1]; [6],5.26
same,Osmolality,[1]; [7],305 mOsm/kg H2O
same,[Furosemide],[1]; [7],<0.002 mg/mL
same,pH,[1]; [7],4.50
same,Osmolality,[1]; [8],311 mOsm/kg H2O
same,[Furosemide],[1]; [8],<0.002 mg/mL
same,pH,[1]; [8],4.73
same,Osmolality,[1]; [9],311 mOsm/kg H2O
same,[Furosemide],[1]; [9],3.60 mg/mL
same,pH,[1]; [9],7.30
same,Osmolality,[1]; [10],306 mOsm/kg H2O
same,[Furosemide],[1]; [10],<0.002 mg/mL
same,pH,[1]; [10],4.54
same,Osmolality,[1]; [11],312 mOsm/kg H2O
same,[Furosemide],[1]; [11],0.58 mg/mL
same,pH,[1]; [11],5.68
same,Osmolality,[1]; [12],303 mOsm/kg H2O
same,[Furosemide],[1]; [12],3.67 mg/mL
same,pH,[1]; [12],7.56
same,change in furosemide concentration,[1]; [13],decreased significantly
same,change in osmolality,[1]; [13],slightly increased
same,change in pH,[1]; [13],decreased significantly
same,color of samples,[1]; [13],dark brown
same,Osmolality,[2]; [14],297 mOsm/kg H2O
same,[Furosemide],[2]; [14],8.01 mg/mL
same,pH,[2]; [14],7.08
same,Osmolality,[2]; [15],298 mOsm/kg H2O
same,[Furosemide],[2]; [15],7.91 mg/mL
same,pH,[2]; [15],7.09
same,Osmolality,[2]; [16],296 mOsm/kg H2O
same,[Furosemide],[2]; [16],7.89 mg/mL
same,pH,[2]; [16],7.08
same,Osmolality,"[2]; 25 mM Tris, nominal pH 7.0, t0",293 mOsm/kg H2O
same,[Furosemide],"[2]; 25 mM Tris, nominal pH 7.0, t0",8.09 mg/mL
same,pH,"[2]; 25 mM Tris, nominal pH 7.0, t0",7.02
same,Osmolality,[2]; [17],296 mOsm/kg H2O
same,[Furosemide],[2]; [17],7.91 mg/mL
same,pH,[2]; [17],7.07
same,Osmolality,[2]; [18],291 mOsm/kg H2O
same,[Furosemide],[2]; [18],7.79 mg/mL
same,pH,[2]; [18],7.49
same,Osmolality,[2]; [19],289 mOsm/kg H2O
same,[Furosemide],[2]; [19],7.81 mg/mL
same,pH,[2]; [19],7.47
same,Osmolality,[2]; [20],290 mOsm/kg H2O
same,[Furosemide],[2]; [20],7.90 mg/mL
same,pH,[2]; [20],7.47
same,Osmolality,"[2]; 25 mM Tris, nominal pH 7.4, t0",287 mOsm/kg H2O
same,[Furosemide],"[2]; 25 mM Tris, nominal pH 7.4, t0",8.00 mg/mL
same,pH,"[2]; 25 mM Tris, nominal pH 7.4, t0",7.42
same,Osmolality,[2]; [21],288 mOsm/kg H2O
same,[Furosemide],[2]; [21],7.92 mg/mL
same,pH,[2]; [21],7.47
same,Osmolality,[2]; [22],292 mOsm/kg H2O
same,[Furosemide],[2]; [22],7.97 mg/mL
same,pH,[2]; [22],8.07
same,Osmolality,[2]; [23],294 mOsm/kg H2O
same,[Furosemide],[2]; [23],7.76 mg/mL
same,pH,[2]; [23],8.06
same,Osmolality,[2]; [24],294 mOsm/kg H2O
same,[Furosemide],[2]; [24],7.99 mg/mL
same,pH,[2]; [24],8.07
same,Osmolality,"[2]; 25 mM Tris, nominal pH 8.0, t0",289 mOsm/kg H2O
same,[Furosemide],"[2]; 25 mM Tris, nominal pH 8.0, t0",8.08 mg/mL
same,pH,"[2]; 25 mM Tris, nominal pH 8.0, t0",8.04
same,Osmolality,[2]; [25],291 mOsm/kg H2O
same,[Furosemide],[2]; [25],7.91 mg/mL
same,pH,[2]; [25],8.06
same,Osmolality,[2]; [26],294 mOsm/kg H2O
same,[Furosemide],[2]; [26],8.02 mg/mL
same,pH,[2]; [26],7.10
same,Osmolality,[2]; [27],290 mOsm/kg H2O
same,[Furosemide],[2]; [27],8.07 mg/mL
same,pH,[2]; [27],7.10
same,Osmolality,[2]; [28],295 mOsm/kg H2O
same,[Furosemide],[2]; [28],7.94 mg/mL
same,pH,[2]; [28],7.12
same,Osmolality,"[2]; 50 mM Tris, nominal pH 7.0, t0",290 mOsm/kg H2O
same,[Furosemide],"[2]; 50 mM Tris, nominal pH 7.0, t0",8.06 mg/mL
same,pH,"[2]; 50 mM Tris, nominal pH 7.0, t0",7.04
same,Osmolality,[2]; [29],289 mOsm/kg H2O
same,[Furosemide],[2]; [29],8.12 mg/mL
same,pH,[2]; [29],7.13
same,Osmolality,[2]; [30],293 mOsm/kg H2O
same,[Furosemide],[2]; [30],8.10 mg/mL
same,pH,[2]; [30],7.50
same,Osmolality,[2]; [31],292 mOsm/kg H2O
same,[Furosemide],[2]; [31],7.87 mg/mL
same,pH,[2]; [31],7.49
same,Osmolality,[2]; [32],296 mOsm/kg H2O
same,[Furosemide],[2]; [32],7.97 mg/mL
same,pH,[2]; [32],7.50
same,Osmolality,"[2]; 50 mM Tris, nominal pH 7.4, t0",289 mOsm/kg H2O
same,[Furosemide],"[2]; 50 mM Tris, nominal pH 7.4, t0",8.09 mg/mL
same,pH,"[2]; 50 mM Tris, nominal pH 7.4, t0",7.44
same,Osmolality,[2]; [33],292 mOsm/kg H2O
same,[Furosemide],[2]; [33],7.93 mg/mL
same,pH,[2]; [33],7.52
same,Osmolality,[2]; [34],296 mOsm/kg H2O
same,[Furosemide],[2]; [34],7.84 mg/mL
same,pH,[2]; [34],8.10
same,Osmolality,[2]; [35],296 mOsm/kg H2O
same,[Furosemide],[2]; [35],7.82 mg/mL
same,pH,[2]; [35],8.09
same,Osmolality,[2]; [36],289 mOsm/kg H2O
same,[Furosemide],[2]; [36],7.95 mg/mL
same,pH,[2]; [36],8.10
same,Osmolality,"[2]; 50 mM Tris, nominal pH 8.0, t0",288 mOsm/kg H2O
same,[Furosemide],"[2]; 50 mM Tris, nominal pH 8.0, t0",8.14 mg/mL
same,pH,"[2]; 50 mM Tris, nominal pH 8.0, t0",8.04
same,Osmolality,[2]; [37],289 mOsm/kg H2O
same,[Furosemide],[2]; [37],7.93 mg/mL
same,pH,[2]; [37],8.11
same,Osmolality,[2]; [38],296 mOsm/kg H2O
same,[Furosemide],[2]; [38],7.89 mg/mL
same,pH,[2]; [38],7.00
same,Osmolality,[2]; [39],293 mOsm/kg H2O
same,[Furosemide],[2]; [39],7.79 mg/mL
same,pH,[2]; [39],6.99
same,Osmolality,[2]; [40],294 mOsm/kg H2O
same,[Furosemide],[2]; [40],7.87 mg/mL
same,pH,[2]; [40],6.98
same,Osmolality,[2]; [41],292 mOsm/kg H2O
same,[Furosemide],[2]; [41],8.04 mg/mL
same,pH,[2]; [41],7.02
same,Osmolality,[2]; [42],298 mOsm/kg H2O
same,[Furosemide],[2]; [42],7.90 mg/mL
same,pH,[2]; [42],7.00
same,Osmolality,[2]; [43],301 mOsm/kg H2O
same,[Furosemide],[2]; [43],7.95 mg/mL
same,pH,[2]; [43],7.41
same,Osmolality,[2]; [44],295 mOsm/kg H2O
same,[Furosemide],[2]; [44],7.82 mg/mL
same,pH,[2]; [44],7.41
same,Osmolality,[2]; [45],297 mOsm/kg H2O
same,[Furosemide],[2]; [45],7.90 mg/mL
same,pH,[2]; [45],7.39
same,Osmolality,[2]; [46],297 mOsm/kg H2O
same,[Furosemide],[2]; [46],8.17 mg/mL
same,pH,[2]; [46],7.42
same,Osmolality,[2]; [47],301 mOsm/kg H2O
same,[Furosemide],[2]; [47],7.92 mg/mL
same,pH,[2]; [47],7.42
same,Osmolality,[2]; [48],295 mOsm/kg H2O
same,[Furosemide],[2]; [48],7.91 mg/mL
same,pH,[2]; [48],7.99
same,Osmolality,[2]; [49],288 mOsm/kg H2O
same,[Furosemide],[2]; [49],7.79 mg/mL
same,pH,[2]; [49],7.97
same,Osmolality,[2]; [50],294 mOsm/kg H2O
same,[Furosemide],[2]; [50],7.79 mg/mL
same,pH,[2]; [50],7.98
same,Osmolality,[2]; [51],292 mOsm/kg H2O
same,[Furosemide],[2]; [51],8.08 mg/mL
same,pH,[2]; [51],7.99
same,Osmolality,[2]; [52],296 mOsm/kg H2O
same,[Furosemide],[2]; [52],7.89 mg/mL
same,pH,[2]; [52],7.99
same,change in furosemide concentration,[2]; [53],no change
same,change in osmolality,[2]; [53],no change
same,change in pH,[2]; [53],no change
same,change in visual appearance,[2]; [53],no change
same,change in furosemide concentration,[3],No decrease
same,pH deviation from the initial value,[3],≤ 0.1 units
